Data as given in the NIST ThermoML archive (doi:10.1021/je100362p).
“And” between values parts separate entries of the source, which are not always exact repeats. Equal entries are not always repeated. Numbers after ± are expanded uncertainties.

Key:
[1] = refractive index (Na D-line) (dimensionless); xn = mol fraction of the nth substance listed; details: 101 kPa, Liquid, Standard Abbe refractometry, x2 = 0
[2] = xn = mol fraction of the nth substance listed; details: 101 kPa, Liquid, x2 = 0; for speed of sound: Sing-around technique in a fixed-path interferometer
[3] = 101 kPa, Liquid; for speed of sound: Sing-around technique in a fixed-path interferometer
[4] = refractive index (Na D-line) (dimensionless); details: 101.33 kPa, Liquid, Standard Abbe refractometry

mass density ([3]; 298.15 K)	speed of sound ([3]; 298.15 K)	mass density ([3]; 303.15 K)	speed of sound ([3]; 303.15 K)	mass density ([3]; 308.15 K)	speed of sound ([3]; 308.15 K)	refractive index ([4]; 298.15 K)	refractive index ([4]; 303.15 K)	refractive index ([4]; 308.15 K)	SMILES	refractive index ([1]; 298.15 K)	refractive index ([1]; 303.15 K)	refractive index ([1]; 308.15 K)	speed of sound ([2]; 298.15 K)	mass density ([2]; 298.15 K)	speed of sound ([2]; 303.15 K)	mass density ([2]; 303.15 K)	speed of sound ([2]; 308.15 K)	mass density ([2]; 308.15 K)
–	–	–	–	–	–	–	–	–	CCCCCCCCCCO [decan-1-ol] + Cc1cccc(O)c1	1.43456 ± 0.00054	1.43256 ± 0.00054	1.4305 ± 0.00055	1379.4 ± 1.1 m/s	826.526 ± 0.55 kg/m3	1362.3 ± 1.1 m/s	823.101 ± 0.56 kg/m3	1345.6 ± 1.1 m/s	819.671 ± 0.57 kg/m3
1030.14 ± 0.49 kg/m3	1486.4 ± 1.4 m/s	1026.28 ± 0.48 kg/m3	1470.7 ± 1.4 m/s	1022.38 ± 0.47 kg/m3	1455 ± 1.4 m/s	1.537 ± 0.00072	1.534 ± 0.00072	1.531 ± 0.00072	Cc1ccc(O)cc1 [4-methylphenol]	–	–	–	–	–	–	–	–	–
1030.05 ± 0.25 kg/m3	1480.9 ± 1 m/s	1026.09 ± 0.24 kg/m3	1465.2 ± 1 m/s	1022.12 ± 0.23 kg/m3	1449.6 ± 1 m/s	1.538 ± 0.0007	1.535 ± 0.0007	1.532 ± 0.0007	Cc1cccc(O)c1 [3-methylphenol]	–	–	–	–	–	–	–	–	–
989.145 ± 0.25 kg/m3	1406.9 ± 1.1 m/s	984.433 ± 0.26 kg/m3	1386.8 ± 1.1 m/s	979.712 ± 0.27 kg/m3	1366.5 ± 1.1 m/s	1.51495 ± 0.00041	1.51395 ± 0.00054	1.51095 ± 0.0007	COc1ccccc1 [anisole]	–	–	–	–	–	–	–	–	–
–	–	–	–	–	–	–	–	–	CCCCCCCCCCO [decan-1-ol] + Cc1ccccc1O	1.43456 ± 0.00052	1.43266 ± 0.00054	1.4305 ± 0.00056	1379.4 ± 1.1 m/s	826.526 ± 0.55 kg/m3	1362.3 ± 1.1 m/s	823.101 ± 0.56 kg/m3	1345.6 ± 1.1 m/s	819.671 ± 0.57 kg/m3
–	–	–	–	–	–	–	–	–	CCCCCCCCCCO [decan-1-ol] + Cc1ccc(O)cc1	1.43456 ± 0.00054	1.43256 ± 0.00054	1.4305 ± 0.00055	1379.4 ± 1.1 m/s	826.526 ± 0.55 kg/m3	1362.3 ± 1.1 m/s	823.101 ± 0.56 kg/m3	1345.6 ± 1.1 m/s	819.671 ± 0.57 kg/m3
–	–	–	–	–	–	–	–	–	CCCCCCCCCCO [decan-1-ol] + COc1ccccc1	1.43456 ± 0.00054	1.43256 ± 0.00054	1.4305 ± 0.00055	1379.4 ± 1.1 m/s	826.526 ± 0.55 kg/m3	1362.3 ± 1.1 m/s	823.101 ± 0.56 kg/m3	1345.6 ± 1.1 m/s	819.671 ± 0.57 kg/m3

SMILES	mass density ([3]; 298.15 K)	speed of sound ([3]; 298.15 K)	mass density ([3]; 303.15 K)	speed of sound ([3]; 303.15 K)	mass density ([3]; 308.15 K)	speed of sound ([3]; 308.15 K)	refractive index ([4]; 298.15 K)	refractive index ([4]; 303.15 K)	refractive index ([4]; 308.15 K)	refractive index ([1]; 298.15 K)	refractive index ([1]; 303.15 K)	refractive index ([1]; 308.15 K)	speed of sound ([2]; 298.15 K)	mass density ([2]; 298.15 K)	speed of sound ([2]; 303.15 K)	mass density ([2]; 303.15 K)	speed of sound ([2]; 308.15 K)	mass density ([2]; 308.15 K)
Cc1ccccc1O [2-methylphenol]	1042.32 ± 0.27 kg/m3	1504.6 ± 1.1 m/s	1036.94 ± 0.26 kg/m3	1487.4 ± 1.1 m/s	1031.55 ± 0.25 kg/m3	1470.3 ± 1 m/s	1.544 ± 0.0007	1.54099 ± 0.00078	1.53699 ± 0.00087	–	–	–	–	–	–	–	–	–
CCCCCCCCCCO [decan-1-ol]	826.526 ± 0.55 kg/m3	1379.4 ± 1.1 m/s	823.101 ± 0.56 kg/m3	1362.3 ± 1.1 m/s	819.671 ± 0.57 kg/m3	1345.6 ± 1.1 m/s	1.43456 ± 0.00054	1.43256 ± 0.00054 and 1.43266 ± 0.00054	1.4305 ± 0.00055	–	–	–	–	–	–	–	–	–
